According to paper PMC5429621 (Scientific Reports, 2017):
Substitutions are numbered along the chain they refer to.

What was measured:
hP2X7-2Nβ K110Y = target: T1, hP2X7-2Nβ K110Y (Homo sapiens, UniProt Q99572, I21V/K110Y/M24R/N16P/N25R/Q22R/R20V/S23N/T19I/Y26L); experiment: two-electrode voltage clamp, Xenopus oocytes; format: cell-based; settings: relative to P2X7-2Nβ
T1 construct: expressed in transfected cells; host or cells: Xenopus laevis oocytes (cRNA injection)
T1 sequence (Q99572 1-595 N16P/T19I/R20V/I21V/Q22R/S23N/M24R/N25R/Y26L/K110Y): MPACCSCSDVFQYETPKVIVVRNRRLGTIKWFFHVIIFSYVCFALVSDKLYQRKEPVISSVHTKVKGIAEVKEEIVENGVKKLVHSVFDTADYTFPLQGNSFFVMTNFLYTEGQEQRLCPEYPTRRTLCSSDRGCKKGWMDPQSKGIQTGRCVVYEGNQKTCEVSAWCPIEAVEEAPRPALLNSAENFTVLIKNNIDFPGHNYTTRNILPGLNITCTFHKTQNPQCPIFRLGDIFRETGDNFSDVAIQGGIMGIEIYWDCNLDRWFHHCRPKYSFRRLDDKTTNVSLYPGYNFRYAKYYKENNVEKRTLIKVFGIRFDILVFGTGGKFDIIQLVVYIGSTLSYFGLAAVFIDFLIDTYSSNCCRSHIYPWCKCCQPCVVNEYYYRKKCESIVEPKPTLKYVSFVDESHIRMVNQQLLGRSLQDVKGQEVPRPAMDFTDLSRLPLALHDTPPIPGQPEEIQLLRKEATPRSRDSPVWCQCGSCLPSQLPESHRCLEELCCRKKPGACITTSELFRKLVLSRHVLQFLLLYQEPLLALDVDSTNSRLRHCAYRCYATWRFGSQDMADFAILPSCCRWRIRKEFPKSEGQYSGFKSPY
Description: (§1) The hP2X1R was a gift from Dr Lin-Hua Jiang (University of Leeds, UK) and the hP2X1R cDNA has been described previously. Chimeras were generated by megaprimer-mediated domain swapping. In addition to chimeras, point mutations, deletions and insertions were made using the QuikChange (Stratagene) or Q5 (New England Bioscience) mutagenesis kits. The production of the correct mutations and absence of coding errors was verified by DNA sequencing (Automated ABI Sequencing Service, University of Leicester, UK).
(§2) P2XR constructs were transcribed to produce sense-strand cRNA (mMessage mMachine, Ambion, Austin, TX). Manually defoliculated stage V Xenopus laevis oocytes were injected with 50 nl (50 ng) of cRNA using an Inject + Matic microinjector (J.A. Gaby, InjectMatic, Geneva, Switzerland) and stored at 16 °C in ND96 buffer (in mM, NaCl 96, KCl 2, CaCl2 1.8, MgCl2 1, sodium pyruvate 5, HEPES 5 (pH 7.6) supplemented with 50 µg/ml gentamycin and 50 µg/ml tetracycline). For electrophysiological recordings (3–7 days post-injection) oocytes were bathed in divalent free ND96 buffer (in mM, NaCl 96, KCl 2, sodium pyruvate 5, HEPES 5 and 0.1 flufenamic acid, pH 7.6).
(§3) ATP (sodium salt, Sigma) was applied via a U-tube perfusion system for 3 s at 3–5 minute intervals to allow reproducible responses to be recorded. […] To standardize for any change in ATP sensitivity at mutant receptors antagonists were co-applied with an EC90 concentration of ATP.
(§4) Concentration response curves were normalized to the maximal response and fitted with the Hill equation (variable slope) with GraphPad Prism 6 (Graphpad software, San Diego, CA). […] Individual concentration response curves were generated for individual experiments and statistical analysis was carried out on the data generated. In the figures the inhibition curves are fitted to the mean normalized data. Any significant differences were calculated by one-way analysis of variance, followed by Bonferroni’s test (using GraphPad Prism 6). Data are shown as mean ± SEM.

hP2X7-2Nβ K297G = target: T2, hP2X7-2Nβ K297G (Homo sapiens, UniProt Q99572, I21V/K297G/M24R/N16P/N25R/Q22R/R20V/S23N/T19I/Y26L); experiment: two-electrode voltage clamp, Xenopus oocytes; format: cell-based; settings: relative to P2X7-2Nβ
T2 construct: expressed in transfected cells; host or cells: Xenopus laevis oocytes (cRNA injection)
T2 sequence (Q99572 1-595 N16P/T19I/R20V/I21V/Q22R/S23N/M24R/N25R/Y26L/K297G): T1 sequence (Q99572 1-595 N16P/T19I/R20V/I21V/Q22R/S23N/M24R/N25R/Y26L/K110Y) with Y110K, K297G
Description: as §1, §2, §3, §4

[1] = target: T3, hP2X7-2Nβ/P2X1 chimera 279–285 (Homo sapiens, UniProt Q99572, DEL279-281/I21V/M24R/N16P/N25R/N284E/Q22R/R20V/S23N/T19I/T282Y/T283E/V285K/Y26L); experiment: two-electrode voltage clamp, Xenopus oocytes; format: cell-based; settings: 279–285 chimera; relative to P2X7-2Nβ
T3 construct: expressed in transfected cells; host or cells: Xenopus laevis oocytes (cRNA injected)
T3 sequence (Q99572 with tags, fused parts or gaps N16P/T19I/R20V/I21V/Q22R/S23N/M24R/N25R/Y26L/DEL279-281/T282Y/T283E/N284E/V285K): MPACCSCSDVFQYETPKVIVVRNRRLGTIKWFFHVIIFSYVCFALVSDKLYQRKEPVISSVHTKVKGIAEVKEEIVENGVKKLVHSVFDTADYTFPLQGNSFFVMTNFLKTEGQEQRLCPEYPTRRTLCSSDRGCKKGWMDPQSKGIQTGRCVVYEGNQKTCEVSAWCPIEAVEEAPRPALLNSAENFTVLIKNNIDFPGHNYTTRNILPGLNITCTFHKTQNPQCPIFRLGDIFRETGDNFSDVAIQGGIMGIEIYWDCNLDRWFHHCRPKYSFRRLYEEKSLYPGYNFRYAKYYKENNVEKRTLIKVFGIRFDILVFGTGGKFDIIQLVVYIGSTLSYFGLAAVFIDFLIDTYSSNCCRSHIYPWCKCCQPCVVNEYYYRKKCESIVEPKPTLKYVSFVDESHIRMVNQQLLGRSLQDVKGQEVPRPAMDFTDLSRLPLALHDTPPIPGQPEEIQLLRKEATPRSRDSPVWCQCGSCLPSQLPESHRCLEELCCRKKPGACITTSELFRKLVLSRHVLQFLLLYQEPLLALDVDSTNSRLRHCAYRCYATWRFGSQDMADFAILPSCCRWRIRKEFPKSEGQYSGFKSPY
Description: as §1, §2, §3, §4

P2X7 receptor (P2X7R) = settings: read-out: ATP EC50, physiological concentrations of calcium and magnesium; cited from earlier work

Compound | increase in sensitivity to AZ10606120 (hP2X7-2Nβ K110Y) | increase in AZ10606120 sensitivity (hP2X7-2Nβ K297G) [fold] | increase in ATP sensitivity [1] | EC50 (P2X7 receptor (P2X7R)) [µM]
Cl.Cl.O=C(CC12CC3CC(CC(C3)C1)C2)Nc1cccc2nc(NCCNCCO)ccc12 [AZ10606120, N-[2-[[2-[(2-Hydroxyethyl)amino]ethyl]amino]-5-quinolinyl]-2-tricyclo[3.3.1.13,7]dec-1-ylacetamide dihydrochloride] | ~ 100 fold | > 100 | – | –
Nc1ncnc2c1ncn2[C@@H]1O[C@H](COP(=O)(O)OP(=O)(O)OP(=O)(O)O)[C@@H](O)[C@H]1O [ATP] | – | – | ~ 10 fold | 300 to 1000
